Laboratory results reported in patent US20200003756A1, “METHOD FOR OBSERVING SEBACEOUS GLAND” (MANDOM CORPORATION, priority 2017, published 2020).

Tested on: sebaceous-gland-structure A
Assay: Observation of inside of sebaceous-gland-structure, lipid droplets of sebum in outermost layer / degree of progress of sebum production (Example 2)
Format: cell-based
Conditions: test sample B, linoleic acid 1×10^−4 M, 24 hours (Experiment number 8); FIGS. 8 and 10
Description: Linoleic acid and linoleic acid receptor antagonist (manufactured by Abeam plc, trade name: GSK-3787) as test substances were added to the mixed medium obtained in Preparation Example 1 so that the concentration of linoleic acid was 1×10^−4 M and so that the concentration of the test substance was 1 μM, to obtain a test sample D.
One milliliter of the test sample A was added to each well of a 24-well plate. Next, the sebaceous-gland-structure A obtained in Preparation Example 6 was cultured in a suspended state in the test sample A in each well of the 24-well plate in the presence of 5% by volume carbon dioxide at 37° C. for 24 hours, to contact the sebaceous-gland-structure A with the test sample A (Experiment number 7). […]
Furthermore, the state of each cell of 40 cells in the outermost layer shown in each figure was evaluated by using the results shown in FIGS. 7 to 9 on the basis of the evaluation criterion described below. […]
Next, the degree of progress of sebum production in the sebaceous gland cell contained in the sebaceous-gland-structure A was evaluated by calculating the mean value of the points in the 40 cells in the outermost layer in FIGS. 7 to 9. […]

Q: For CCCCC/C=C\C/C=C\CCCCCCCC(=O)O [linoleic acid, Linoleic acid], which “lipid droplets of sebum in the outermost layer of the sebaceous-gland-structure A” value is on record?
A: lipid droplets of sebum were found
